# Experimental data taken from PMC9965221, “Antiviral Mechanism of Virucidal Sialic Acid Modified Cyclodextrin” (Pharmaceutics, 2023).
# Target: T1, recombinant HA (A/California/04/2009, Met1-Gln549) (Influenza A virus (A/California/04/2009(H1N1)), UniProt C3W5S1)
# T1 construct: Met1-Gln549, His-tagged recombinant, immobilised on anti-His probes
# Format: binding
# T1 sequence (C3W5S1 entry or part of it, added parts left off): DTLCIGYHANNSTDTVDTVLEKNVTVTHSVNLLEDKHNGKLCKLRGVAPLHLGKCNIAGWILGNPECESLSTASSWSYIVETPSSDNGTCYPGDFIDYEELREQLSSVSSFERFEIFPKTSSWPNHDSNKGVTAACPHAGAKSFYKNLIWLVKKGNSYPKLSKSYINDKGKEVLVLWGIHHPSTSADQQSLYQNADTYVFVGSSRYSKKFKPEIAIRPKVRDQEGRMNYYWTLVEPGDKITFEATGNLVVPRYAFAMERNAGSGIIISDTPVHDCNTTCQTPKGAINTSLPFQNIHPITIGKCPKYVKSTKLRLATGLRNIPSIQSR
compound,measurement,value
CC(=O)N[C@H]1[C@H]([C@H](O)[C@H](O)CO)O[C@@](OC[C@H]2O[C@@H](O[C@H]3[C@H](O)[C@@H](NC(C)=O)C(O)O[C@@H]3CO)[C@H](O)[C@@H](O)[C@H]2O)(C(=O)O)C[C@@H]1O (stereo partly shown) [6′SLN],Kd,> 5 mM
